Data published in PubChem BioAssay AID330 (DTP/NCI, 2004).
“And” between values parts separate entries of the source, which are not always exact repeats. Equal entries are not always repeated. Inconclusive results and toxic doses are left out. The calls were made as follows: active = survival T/C of 150% or more; inactive = T/C below 125% in these data.

System: P388 leukemia ip, CD2F1 mice, survival T/C
Assay: NCI In Vivo Anticancer Drug Screen. Data for tumor model P388 Leukemia (intraperitoneal) in CD2F1 (CDF1) mice
Settings: endpoint: median survival time, higher = longer survival
Summary of the method: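 Mice carrying the transplanted tumor received test compound or vehicle. Survival was recorded in each group, and the value is the treated-group measurement divided by that of the vehicle-treated control group.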

[1] = dose: 50.0 mg/kg/injection, schedule: Q01DX005 (ip), vehicle: saline with Tween-80
[2] = dose: 100.0 mg/kg/injection, schedule: Q01DX005 (ip), vehicle: saline with Tween-80
[3] = dose: 200.0 mg/kg/injection, schedule: Q01DX005 (ip), vehicle: saline with Tween-80
[4] = dose: 100.0 mg/kg/injection, schedule: Q04DX003 (ip), vehicle: saline with Tween-80
[5] = dose: 200.0 mg/kg/injection, schedule: Q04DX003 (ip), vehicle: saline with Tween-80
[6] = dose: 400.0 mg/kg/injection, schedule: Q04DX003 (ip), vehicle: saline with Tween-80
[7] = dose: 100.0 mg/kg/injection, schedule: Q04DX003 (ip), vehicle: Klucel (hydroxypropylcellulose) (HPC)
[8] = dose: 200.0 mg/kg/injection, schedule: Q04DX003 (ip), vehicle: Klucel (hydroxypropylcellulose) (HPC)
[9] = dose: 60.0 mg/kg/injection, schedule: Q01DX005 (ip), vehicle: saline with Tween-80
[10] = dose: 120.0 mg/kg/injection, schedule: Q01DX005 (ip), vehicle: saline with Tween-80
[11] = dose: 240.0 mg/kg/injection, schedule: Q01DX005 (ip), vehicle: saline with Tween-80
[12] = dose: 50.0 mg/kg/injection, schedule: Q01DX005 (ip), vehicle: Klucel (hydroxypropylcellulose) (HPC)
[13] = dose: 100.0 mg/kg/injection, schedule: Q01DX005 (ip), vehicle: Klucel (hydroxypropylcellulose) (HPC)

Measured: T/C

[NH-]C(CO)C(=O)O.[NH-]C(CO)C(=O)O.[Pd+2] (stereo not drawn)
inactive: dose: 3.13 mg/kg/injection, schedule: Q04DX003 (ip), vehicle: water 103 % of control | dose: 6.25 mg/kg/injection, schedule: Q04DX003 (ip), vehicle: water 100 % of control | dose: 12.5 mg/kg/injection, schedule: Q01DX009 (ip), vehicle: acid diluted with saline 108 % of control | dose: 12.5 mg/kg/injection, schedule: Q01DX009 (ip), vehicle: water 104 % of control and 113 % of control | dose: 12.5 mg/kg/injection, schedule: Q04DX003 (ip), vehicle: water 97 % of control | dose: 25.0 mg/kg/injection, schedule: Q01DX009 (ip), vehicle: acid diluted with saline 109 % of control | dose: 25.0 mg/kg/injection, schedule: Q01DX009 (ip), vehicle: water 108 % of control and 109 % of control | dose: 25.0 mg/kg/injection, schedule: Q04DX003 (ip), vehicle: water 103 % of control | dose: 50.0 mg/kg/injection, schedule: Q01DX009 (ip), vehicle: acid diluted with saline 113 % of control | dose: 50.0 mg/kg/injection, schedule: Q01DX009 (ip), vehicle: water 104 % of control and 117 % of control | dose: 50.0 mg/kg/injection, schedule: Q04DX003 (ip), vehicle: water 117 % of control | dose: 100.0 mg/kg/injection, schedule: Q01DX009 (ip), vehicle: acid diluted with saline 104 % of control | dose: 100.0 mg/kg/injection, schedule: Q01DX009 (ip), vehicle: water 86 % of control | dose: 100.0 mg/kg/injection, schedule: Q04DX003 (ip), vehicle: water 106 % of control

CNC(=O)OCc1ccc(NCCN(C)C)c2c(=O)c3cc(O)ccc3oc12
inactive: dose: 0.38 mg/kg/injection, schedule: Q01DX005 (ip), vehicle: Klucel (hydroxypropylcellulose) (HPC) 97 % of control | dose: 0.75 mg/kg/injection, schedule: Q01DX005 (ip), vehicle: Klucel (hydroxypropylcellulose) (HPC) 106 % of control | dose: 1.5 mg/kg/injection, schedule: Q01DX005 (ip), vehicle: Klucel (hydroxypropylcellulose) (HPC) 113 % of control | dose: 3.0 mg/kg/injection, schedule: Q01DX005 (ip), vehicle: Klucel (hydroxypropylcellulose) (HPC) 124 % of control | dose: 6.0 mg/kg/injection, schedule: Q01DX005 (ip), vehicle: Klucel (hydroxypropylcellulose) (HPC) 120 % of control

Nc1nnc2nc(C(C(=O)c3ccc(Cl)cc3Cl)c3nc4nnc(N)n4[nH]c3=O)c(=O)[nH]n12
inactive: [1] 92 % of control | [2] 100 % of control | [3] 100 % of control

OC(Cc1cccnc1)(c1ccccc1)c1cccc2ccccc12 (stereo not drawn)
inactive: [4] 90 % of control | [5] 86 % of control

CC(C)(NCc1ccccc1)C(=O)OC(C)(C)C(=O)NCc1ccccc1
inactive: dose: 25.0 mg/kg/injection, schedule: Q01DX005 (ip), vehicle: saline with Tween-80 100 % of control and 103 % of control | [1] 95 % of control and 108 % of control | [2] 95 % of control

Cc1cc(C)n(-c2ccc(S(=O)(=O)N3CCC(=O)N(Cc4ccccc4)C3=S)cc2)n1
inactive: [1] 100 % of control | [2] 93 % of control | [3] 93 % of control

C[C@]12CC[C@H]3C(=CCc4cc(O)ccc43)[C@@H]1C/C(=N\O)C2=O
inactive: dose: 100.0 mg/kg/injection, schedule: Q01DX009 (ip), vehicle: saline with Tween-80 115 % of control | [4] 100 % of control | dose: 200.0 mg/kg/injection, schedule: Q01DX009 (ip), vehicle: saline with Tween-80 120 % of control | [5] 104 % of control | [6] 95 % of control

c1ccc2sc(N3CCCCC3)nc2c1
inactive: dose: 25.0 mg/kg/injection, schedule: Q04DX003 (ip), vehicle: Klucel (hydroxypropylcellulose) (HPC) 105 % of control | dose: 50.0 mg/kg/injection, schedule: Q01DX009 (ip), vehicle: saline 104 % of control | dose: 50.0 mg/kg/injection, schedule: Q04DX003 (ip), vehicle: Klucel (hydroxypropylcellulose) (HPC) 99 % of control | dose: 100.0 mg/kg/injection, schedule: Q01DX009 (ip), vehicle: saline 104 % of control | [7] 100 % of control | dose: 200.0 mg/kg/injection, schedule: Q01DX009 (ip), vehicle: saline 103 % of control | [8] 109 % of control

C=C[C@H](c1ccccc1O)c1cc(O)c(OC)cc1OC
inactive: dose: 31.0 mg/kg/injection, schedule: Q01DX005 (ip), vehicle: Klucel (hydroxypropylcellulose) (HPC) 103 % of control | dose: 62.0 mg/kg/injection, schedule: Q01DX005 (ip), vehicle: Klucel (hydroxypropylcellulose) (HPC) 103 % of control | dose: 124.0 mg/kg/injection, schedule: Q01DX005 (ip), vehicle: Klucel (hydroxypropylcellulose) (HPC) 93 % of control | dose: 248.0 mg/kg/injection, schedule: Q01DX005 (ip), vehicle: Klucel (hydroxypropylcellulose) (HPC) 94 % of control

CC(O)(CO)C(C)(O)C(C)(O)c1cn(O)c(=N)c(C(=O)OCc2ccccc2)n1 (stereo not drawn)
inactive: dose: 100.0 mg/kg/injection, schedule: Q04DX003 (ip), vehicle: saline 93 % of control | dose: 200.0 mg/kg/injection, schedule: Q04DX003 (ip), vehicle: saline 102 % of control

c1ccc(-c2ncc[nH]2)cc1
inactive: dose: 100.0 mg/kg/injection, schedule: Q01DX001 (ip), vehicle: saline with Tween-80 98 % of control | dose: 200.0 mg/kg/injection, schedule: Q01DX001 (ip), vehicle: saline with Tween-80 97 % of control

Cc1nnc2c3nccnc3c(N)nn12
inactive: [9] 96 % of control | [10] 104 % of control | [11] 104 % of control

O=C(CC(=O)C(F)(F)F)c1cccs1
inactive: dose: 6.25 mg/kg/injection, schedule: Q01DX009 (ip), vehicle: saline with Tween-80 100 % of control | dose: 12.5 mg/kg/injection, schedule: Q01DX009 (ip), vehicle: saline with Tween-80 100 % of control and 104 % of control | dose: 25.0 mg/kg/injection, schedule: Q01DX009 (ip), vehicle: saline with Tween-80 103 % of control and 110 % of control | dose: 50.0 mg/kg/injection, schedule: Q01DX009 (ip), vehicle: saline with Tween-80 100 % of control and 111 % of control and 114 % of control

O=C(O)CCN1C(=O)CCC1=O
inactive: [4] 100 % of control | [5] 95 % of control | [6] 91 % of control

O=C(NNC(O)C(F)(F)F)c1ccccc1 (stereo not drawn)
inactive: [7] 103 % of control | [8] 103 % of control | dose: 400.0 mg/kg/injection, schedule: Q04DX003 (ip), vehicle: Klucel (hydroxypropylcellulose) (HPC) 110 % of control

CC1(C)CCCC2=C1C(=O)N(SC(Cl)(Cl)Cl)C2=O
inactive: dose: 12.5 mg/kg/injection, schedule: Q01DX005 (ip), vehicle: Klucel (hydroxypropylcellulose) (HPC) 102 % of control | dose: 25.0 mg/kg/injection, schedule: Q01DX005 (ip), vehicle: Klucel (hydroxypropylcellulose) (HPC) 121 % of control | [12] 121 % of control and 123 % of control | [13] 122 % of control

Cc1nc2[nH]ncc2c(=O)n1-c1ccccc1
inactive: [12] 97 % of control | [13] 99 % of control | dose: 200.0 mg/kg/injection, schedule: Q01DX005 (ip), vehicle: Klucel (hydroxypropylcellulose) (HPC) 100 % of control

COC(=O)CCP(CCC(=O)OC)c1ccccc1
inactive: [9] 99 % of control | [10] 99 % of control | [11] 103 % of control

CC(C)(C)[NH2+][B-](F)(F)F
inactive: dose: 6.25 mg/kg/injection, schedule: Q01DX005 (ip), vehicle: saline 94 % of control | dose: 12.5 mg/kg/injection, schedule: Q01DX005 (ip), vehicle: saline 103 % of control

CCCc1nc2ccccc2c(=O)n1/N=C/c1ccsc1
inactive: [4] 100 % of control | [5] 90 % of control | [6] 90 % of control
